Source: PubChem BioAssay AID256 (DTP/NCI, 2004)
Where “and” joins values, the source holds several entries; their conditions need not be identical. Equal values may be shown once. Toxic doses and inconclusive results are not listed.

Tested on: CD2F1 mice, L1210 leukemia ip, survival T/C
Assay: NCI In Vivo Anticancer Drug Screen. Data for tumor model L1210 Leukemia (intraperitoneal) in CD2F1 (CDF1) mice
Conditions: higher = longer survival
Outline: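 Read-out first: treated-group measurement over vehicle-control measurement, expressed as a ratio. Animals bore a transplanted tumor line and were dosed with compound or vehicle.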

CO[C@@]12[C@@H]3N[C@@H]3CN1C1=C(C(=O)C(N3CCOCC3)=C(C)C1=O)[C@@H]2COC(N)=O
T/C (endpoint: mean survival time, dose: 1.5 mg/kg/injection, schedule: Q01DX001 (ip), vehicle: distilled water + Tween-80): 118 % of control
T/C (endpoint: mean survival time, dose: 3.0 mg/kg/injection, schedule: Q01DX001 (ip), vehicle: distilled water + Tween-80): 123 % of control
T/C (endpoint: mean survival time, dose: 12.0 mg/kg/injection, schedule: Q01DX001 (ip), vehicle: distilled water + Tween-80): 115 % of control

O=C(Nc1ccccc1Cl)Nc1ccccc1Cl
T/C (endpoint: mean survival time, dose: 100.0 mg/kg/injection, schedule: Q04DX002 (ip), vehicle: saline with Tween-80): 90 % of control
T/C (endpoint: mean survival time, dose: 200.0 mg/kg/injection, schedule: Q04DX002 (ip), vehicle: saline with Tween-80): 94 % of control
T/C (endpoint: mean survival time, dose: 400.0 mg/kg/injection, schedule: Q04DX002 (ip), vehicle: saline with Tween-80): 94 % of control

Cc1ccc(S(=O)(=O)N(CCC(=O)O)c2ccccc2)cc1
T/C (endpoint: mean survival time, dose: 100.0 mg/kg/injection, schedule: Q04DX003 (ip), vehicle: saline with Tween-80): 101 % of control
T/C (endpoint: mean survival time, dose: 200.0 mg/kg/injection, schedule: Q04DX003 (ip), vehicle: saline with Tween-80): 97 % of control
T/C (endpoint: mean survival time, dose: 400.0 mg/kg/injection, schedule: Q04DX003 (ip), vehicle: saline with Tween-80): 98 % of control

O=C(O)CC(=O)O.[NH-]CC(O)CN=Cc1ccccc1O.[Pt] (centres undefined)
T/C (endpoint: median survival time, dose: 5.0 mg/kg/injection, schedule: Q04DX003 (ip), vehicle: water): 108 % of control
T/C (endpoint: median survival time, dose: 10.0 mg/kg/injection, schedule: Q04DX003 (ip), vehicle: water): 105 % of control
T/C (endpoint: median survival time, dose: 20.0 mg/kg/injection, schedule: Q04DX003 (ip), vehicle: water): 108 % of control
T/C (endpoint: median survival time, dose: 25.0 mg/kg/injection, schedule: Q04DX003 (ip), vehicle: water): 110 % of control
T/C (endpoint: median survival time, dose: 40.0 mg/kg/injection, schedule: Q04DX003 (ip), vehicle: water): 108 % of control
T/C (endpoint: median survival time, dose: 50.0 mg/kg/injection, schedule: Q04DX003 (ip), vehicle: water): 110 % of control
T/C (endpoint: median survival time, dose: 100.0 mg/kg/injection, schedule: Q04DX003 (ip), vehicle: water): 105 % of control
T/C (endpoint: median survival time, dose: 200.0 mg/kg/injection, schedule: Q04DX003 (ip), vehicle: water): 103 % of control

CS(=O)(=O)OC1C(OC(=O)OCc2ccccc2)C2COC(O2)C1OC(=O)OCc1ccccc1 (centres undefined)
T/C (endpoint: mean survival time, dose: 100.0 mg/kg/injection, schedule: Q01DX009 (ip), vehicle: saline with Tween-80): 92 % of control
T/C (endpoint: mean survival time, dose: 200.0 mg/kg/injection, schedule: Q01DX009 (ip), vehicle: saline with Tween-80): 92 % of control
T/C (endpoint: mean survival time, dose: 400.0 mg/kg/injection, schedule: Q01DX009 (ip), vehicle: saline with Tween-80): 89 % of control

CC1CN1C(=O)NCCCCCCNC(=O)N1CC1C (centres undefined)
T/C (endpoint: mean survival time, dose: 0.31 mg/kg/injection, schedule: Q01DX009 (ip), vehicle: Klucel (hydroxypropylcellulose) (HPC)): 89 % of control
T/C (endpoint: mean survival time, dose: 0.63 mg/kg/injection, schedule: Q01DX009 (ip), vehicle: Klucel (hydroxypropylcellulose) (HPC)): 119 % of control and 101 % of control
T/C (endpoint: mean survival time, dose: 1.25 mg/kg/injection, schedule: Q01DX009 (ip), vehicle: Klucel (hydroxypropylcellulose) (HPC)): 97 % of control
T/C (endpoint: mean survival time, dose: 2.5 mg/kg/injection, schedule: Q01DX001 (ip), vehicle: Klucel (hydroxypropylcellulose) (HPC)): 98 % of control
T/C (endpoint: mean survival time, dose: 2.5 mg/kg/injection, schedule: Q01DX009 (ip), vehicle: Klucel (hydroxypropylcellulose) (HPC)): 110 % of control
T/C (endpoint: mean survival time, dose: 5.0 mg/kg/injection, schedule: Q01DX001 (ip), vehicle: Klucel (hydroxypropylcellulose) (HPC)): 94 % of control
T/C (endpoint: mean survival time, dose: 5.0 mg/kg/injection, schedule: Q01DX009 (ip), vehicle: Klucel (hydroxypropylcellulose) (HPC)): 156 % of control
T/C (endpoint: mean survival time, dose: 10.0 mg/kg/injection, schedule: Q01DX001 (ip), vehicle: Klucel (hydroxypropylcellulose) (HPC)): 100 % of control
T/C (endpoint: mean survival time, dose: 20.0 mg/kg/injection, schedule: Q01DX001 (ip), vehicle: Klucel (hydroxypropylcellulose) (HPC)): 107 % of control

NC(N)=N/N=C\c1ccc2ccccc2c1
T/C (endpoint: mean survival time, dose: 25.0 mg/kg/injection, schedule: Q04DX002 (ip), vehicle: saline with Tween-80): 97 % of control
T/C (endpoint: mean survival time, dose: 50.0 mg/kg/injection, schedule: Q04DX002 (ip), vehicle: saline with Tween-80): 101 % of control

COC1=C(C)C(=O)C2=C(C1=O)C(CO)N1C(C#N)C3CC4C(C1C2N1CCOC41)N3C (centres undefined)
T/C (endpoint: median survival time, dose: 0.12 mg/kg/injection, schedule: Q01DX005 (ip), vehicle: acid diluted with saline): 102 % of control
T/C (endpoint: median survival time, dose: 0.12 mg/kg/injection, schedule: Q01DX009 (ip), vehicle: saline + alcohol): 111 % of control
T/C (endpoint: median survival time, dose: 0.25 mg/kg/injection, schedule: Q01DX005 (ip), vehicle: acid diluted with saline): 102 % of control
T/C (endpoint: median survival time, dose: 0.25 mg/kg/injection, schedule: Q01DX009 (ip), vehicle: saline + alcohol): 113 % of control
T/C (endpoint: median survival time, dose: 0.5 mg/kg/injection, schedule: Q01DX005 (ip), vehicle: acid diluted with saline): 105 % of control
T/C (endpoint: median survival time, dose: 0.5 mg/kg/injection, schedule: Q01DX009 (ip), vehicle: saline + alcohol): 111 % of control
T/C (endpoint: median survival time, dose: 1.0 mg/kg/injection, schedule: Q01DX005 (ip), vehicle: acid diluted with saline): 104 % of control
T/C (endpoint: median survival time, dose: 1.0 mg/kg/injection, schedule: Q01DX009 (ip), vehicle: saline + alcohol): 108 % of control
